Entries after “also recorded” stand apart in the source; their conditions may differ.
Legend:
[1] = system: patients with Dravet and Lennox-Gastaut syndrome; details: purified pharmaceutical formulation of CBD; three trials; cited from earlier work
[2] = system: seizures associated with Rett syndrome; assay: Open label, phase I trial of CBDV in patients diagnosed with Rett syndrome (caregiver seizure diary); assay type: in vivo, human; design: Mean seizure frequency reduction: concentration or dose not given beside the values; details: for Mean seizure frequency reduction: versus baseline
From the text: Example 1 below describes the use of a botanically derived purified CBDV in an open label, phase I trial to investigate the clinical efficacy and safety of purified pharmaceutical cannabidivarin formulation (CBDV) in the treatment of patients diagnosed with Rett syndrome.
Subjects were required to be on one or more AEDs at stable doses for a minimum of 4 weeks prior to baseline. Subjects had to have been diagnosed with intractable epilepsy: failed adequate trial of two, or more, standard anticonvulsants, and four or more quantifiable seizures less than 8 weeks prior to screening, and two or more quantifiable seizures in prospective baseline phase.
Patients were administered botanically derived purified CBDV in a 50 mg/mL sesame oil-based solution which was titrated to an initial dose of 2.5 milligrams per kilogram per day (mg/kg/day). Doses were then increased to a goal of 10 mg/kg/day.
There were five patients in this study, and each received CBDV for various durations of time. Modifications were made to concomitant AEDs as per clinical indication.
Seizure frequency, intensity, and duration were recorded by caregivers in a diary during a baseline period of at least 28 days. Changes in seizure frequency relative to baseline were calculated after at least 2 weeks and at defined timepoints of treatment.
Patients may be defined as responders if they had more than 50% reduction in seizure frequency compared to baseline. The percent change of seizure frequency for the end of the treatment period was calculated as follows: […]

[3] = system: mouse model of Rett syndrome; details: cited from earlier work
[4] = system: pilocarpine-induced seizures; details: CBDV alone; Hill et al. 2012; cited from earlier work
[5] = system: methyl-6, 7-dimethoxy-4-ethyl-beta-carboline-3-carboxylate (DMCM) model; details: postnatal day 10 animals; cited from earlier work
[6] = system: maximal electroshock model; details: postnatal day 10 animals; cited from earlier work
[7] = system: MeCP2 KO mouse model of Rett Syndrome; details: WO 2017/178807; cited from earlier work
[8] = Patient 1, total over 14 months of CBDV, baseline 0
[9] = Patient 2, total over 11 months of CBDV, baseline 0
[10] = Patient 3, total over 12 months of CBDV, baseline 0
[11] = Patient 4, total over 12.5 months of CBDV, baseline 0
[12] = Patient 5, total over 11 months of CBDV, baseline 0

SMILES: C=C(C)[C@@H]1CCC(C)=C[C@H]1c1c(O)cc(CCCCC)cc1O [CBD, Cannabidiol]
- Efficacy in randomized control trials [1]: showed efficacy

SMILES: C=C(C)[C@@H]1CCC(C)=C[C@H]1c1c(O)cc(CCC)cc1O [CBDV, cannabidivarin]
- Mean seizure frequency reduction ([2]; Patient 1, 14 months of CBDV): 52.5%
- Total seizure frequency ([2]; Patient 1, 14 months of CBDV, baseline 32.0/month): 15.2/month
- Focal seizures with impairment, Non-motor: seizure count [2, 8]: 2 /14 months
- Generalised seizures, Motor other: seizure count [2, 8]: 8 /14 months
- Generalised seizures, Motor tonic-clonic: seizure count [2, 8]: 0 /14 months
- Non-motor: seizure count [2, 8]: 0 /14 months
- Other: seizure count [2, 8]: 1 /14 months
- Unknown onset, Motor other: seizure count [2, 8]: 3 /14 months
- Unknown onset, Motor tonic-clonic: seizure count [2, 8]: 7 /14 months
- Focal seizures with impairment, Motor: seizure count ([2]; Patient 1, total over 14 months of CBDV, baseline 32): 192 /14 months
- Mean seizure frequency reduction ([2]; Patient 2, 11 months of CBDV): 79.4%
- Total seizure frequency ([2]; Patient 2, 11 months of CBDV, baseline 35.0/month): 7.2/month
- Focal seizures with impairment, Motor: seizure count [2, 9]: 0 /11 months
- Generalised seizures, Motor other: seizure count [2, 9]: 0 /11 months
- Generalised seizures, Motor tonic-clonic: seizure count [2, 9]: 0 /11 months
- Non-motor: seizure count [2, 9]: 0 /11 months
- Unknown onset, Motor other: seizure count [2, 9]: 0 /11 months
- Unknown onset, Motor tonic-clonic: seizure count [2, 9]: 0 /11 months
- Other: seizure count ([2]; Patient 2, total over 11 months of CBDV, baseline 3): 18 /11 months
- Focal seizures with impairment, Non-motor: seizure count ([2]; Patient 2, total over 11 months of CBDV, baseline 32): 61 /11 months
- Mean seizure frequency reduction ([2]; Patient 3, 12 months of CBDV): 90.0%
- Total seizure frequency ([2]; Patient 3, 12 months of CBDV, baseline 6.0/month): 0.6/month
- Focal seizures with impairment, Non-motor: seizure count [2, 10]: 0 /12 months
- Generalised seizures, Motor other: seizure count [2, 10]: 0 /12 months
- Non-motor: seizure count [2, 10]: 0 /12 months
- Other: seizure count [2, 10]: 0 /12 months
- Unknown onset, Motor other: seizure count [2, 10]: 0 /12 months
- Unknown onset, Motor tonic-clonic: seizure count [2, 10]: 0 /12 months
- Focal seizures with impairment, Motor: seizure count ([2]; Patient 3, total over 12 months of CBDV, baseline 1): 3 /12 months
- Generalised seizures, Motor tonic-clonic: seizure count ([2]; Patient 3, total over 12 months of CBDV, baseline 5): 4 /12 months
- Mean seizure frequency reduction ([2]; Patient 4, 12.5 months of CBDV): 5.7%
- Total seizure frequency ([2]; Patient 4, 12.5 months of CBDV, baseline 7.0/month): 6.6/month
- Focal seizures with impairment, Non-motor: seizure count [2, 11]: 0 /12.5 months
- Generalised seizures, Motor tonic-clonic: seizure count [2, 11]: 0 /12.5 months
- Non-motor: seizure count [2, 11]: 0 /12.5 months
- Other: seizure count [2, 11]: 6 /12.5 months
- Unknown onset, Motor other: seizure count [2, 11]: 0 /12.5 months
- Unknown onset, Motor tonic-clonic: seizure count [2, 11]: 0 /12.5 months
- Focal seizures with impairment, Motor: seizure count ([2]; Patient 4, total over 12.5 months of CBDV, baseline 3): 73 /12.5 months
- Generalised seizures, Motor other: seizure count ([2]; Patient 4, total over 12.5 months of CBDV, baseline 4): 4 /12.5 months
- Mean seizure frequency reduction ([2]; Patient 5, 11 months of CBDV): 98.1%
- Total seizure frequency ([2]; Patient 5, 11 months of CBDV, baseline 371.0/month): 7.2/month
- Focal seizures with impairment, Motor: seizure count [2, 12]: 0 /11 months
- Focal seizures with impairment, Non-motor: seizure count [2, 12]: 0 /11 months
- Non-motor: seizure count [2, 12]: 6 /11 months
- Other: seizure count [2, 12]: 0 /11 months
- Unknown onset, Motor tonic-clonic: seizure count [2, 12]: 0 /11 months
- Generalised seizures, Motor other: seizure count ([2]; Patient 5, total over 11 months of CBDV, baseline 18): 18 /11 months
- Generalised seizures, Motor tonic-clonic: seizure count ([2]; Patient 5, total over 11 months of CBDV, baseline 25): 38 /11 months
- Unknown onset, Motor other: seizure count ([2]; Patient 5, total over 11 months of CBDV, baseline 328): 17 /11 months
- Decrease of seizure frequency rates, maximum ([2]; across listed seizure types): up to 98%
- Reduction in seizures over the period of treatment, range over patients ([2]; all five patients, 11-14 months of CBDV): 5.7-98.1%
- Patients with more than 50% reduction in seizure frequency compared to baseline (responders) ([2]; five patients): four of the five patients
- Patients with more than 75% reduction in seizure frequency compared to baseline ([2]; five patients): three
- Effect on number of seizures associated with Rett syndrome ([2]; five patients, open label): significantly reduce the number of seizures
- Effect on frequency of seizure types ([2]; focal motor/non-motor with impairment, generalised motor/non-motor, unknown onset motor, non-motor and other types): effective in reducing the frequency of all seizure types; also recorded: significant reduction in specific seizure types
- Patients with focal seizures with impairment who experienced a reduction in their seizures ([2]; four patients (patient 1-4) suffered from focal seizures with impairment): three (patients 1-3) of these patients experienced a reduction
- Patients with generalised seizures who experienced a reduction in these seizures ([2]; three patients (patients 3-5) suffered from generalised seizures): all three experienced a reduction
- Behavioural alterations ([3]; reference 2): rescue the behavioural alterations
- Memory deficits ([3]; reference 3): rescued memory deficits
- Neurological and motor defects ([3]; reference 3): delayed the appearance of neurological and motor defects
- Effect on pilocarpine-induced seizures [4]: did not have any effect
- Seizure suppression [5]: did not suppress seizures
- Seizure suppression [6]: did not suppress seizures
- Bodyweight and survival [7]: reduce the decrease in bodyweight and survival
- General condition and symptoms of mobility and breathing [7]: improved general condition and symptoms of mobility and breathing

Source: US20230346809A1, “USE OF CANNABIDIVARIN IN THE TREATMENT OF SEIZURES ASSOCIATED WITH RARE EPILEPSY SYNDROMES RELATED TO GENETIC ABNORMALITIES” (GW Research Limited, priority 2020, published 2023)
